From patent US20230117034A1, “PYRAZOLOTRIAZINES” (Bayer Aktiengesellschaft, priority 2019, published 2023)
Read-outs that look alike come from different tables or passages of the source.

Tests used:
[1] = tested on: BRCA1 mRNA expression in MDA-MB-231 cells; test: qRT-PCR assay: BRCA1 mRNA expression in MDA-MB-231; type: cell-based, human; conditions: median, read-out: RTqPCR-MDA-MB-231, IC50, BRCA1 (median)
How it was run: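 Cells were seeded at 200,000 cells/well, left 24 h, then exposed continuously to test substances for 24 h. Total RNA (600 ng) was reverse-transcribed to cDNA and amplified by qPCR, and transcript levels were normalised to GAPDH housekeeping expression.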

[2] = tested on: CAL-120, human breast adenocarcinoma cells; test: Proliferation assay CAL-120 (crystal violet, 4 days); type: cell-based; conditions: CAL-120 cells, median, read-out: Prolif-CAL-120, IC50-[mol/l] (median)
How it was run: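 Cells seeded at 4,000/well in medium with 10% FCS; after 24 h, compounds added at 0.01-10 µmol/L (0.1% DMSO) for 4 days. Glutaraldehyde-fixed, crystal violet-stained, absorbance at 595 nm normalized to zero-point plate (0%) and untreated cells (100%); IC50 by 4-parameter fit.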

[3] = molecular target: T1, CDK12 (nuclear staining in CAL-120 cells) (Homo sapiens, UniProt Q9NYV4); test: CDK12 nuclear protein level: immunofluorescence/high content analysis (CAL-120); type: cell-based; conditions: for DC50: CAL-120 cells, 24 h, immunofluorescence, 50% reduction of nuclear CDK12 staining intensity, median, read-out: CDK12 degradation IF, DC50- [mol/l] (median); for (IC50 CDK12 high ATP) to (Degradation DC50 CDK12) ratio: ratio of IC50 CDK12 high ATP kinase assay to DC50 CDK12 degradation (IF, CAL-120)
T1 construct: endogenous in cells; host or cells: CAL-120 human breast cancer cells (DSMZ ACC 459)
How it was run: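 CAL-120 cells were treated with compound for 24 h at 37 °C, fixed with PFA and immunostained for CDK12. Nuclear CDK12 intensity was quantified by automated image analysis and normalized to DMSO and control. DC50 is the concentration giving 50% reduction of nuclear staining.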

[4] = Homo sapiens, MDA-MB-231, Inhibition of BRCA1 mRNA expression in MDA-MB-231 cells

T1 sequence (Q9NYV4 whole entry): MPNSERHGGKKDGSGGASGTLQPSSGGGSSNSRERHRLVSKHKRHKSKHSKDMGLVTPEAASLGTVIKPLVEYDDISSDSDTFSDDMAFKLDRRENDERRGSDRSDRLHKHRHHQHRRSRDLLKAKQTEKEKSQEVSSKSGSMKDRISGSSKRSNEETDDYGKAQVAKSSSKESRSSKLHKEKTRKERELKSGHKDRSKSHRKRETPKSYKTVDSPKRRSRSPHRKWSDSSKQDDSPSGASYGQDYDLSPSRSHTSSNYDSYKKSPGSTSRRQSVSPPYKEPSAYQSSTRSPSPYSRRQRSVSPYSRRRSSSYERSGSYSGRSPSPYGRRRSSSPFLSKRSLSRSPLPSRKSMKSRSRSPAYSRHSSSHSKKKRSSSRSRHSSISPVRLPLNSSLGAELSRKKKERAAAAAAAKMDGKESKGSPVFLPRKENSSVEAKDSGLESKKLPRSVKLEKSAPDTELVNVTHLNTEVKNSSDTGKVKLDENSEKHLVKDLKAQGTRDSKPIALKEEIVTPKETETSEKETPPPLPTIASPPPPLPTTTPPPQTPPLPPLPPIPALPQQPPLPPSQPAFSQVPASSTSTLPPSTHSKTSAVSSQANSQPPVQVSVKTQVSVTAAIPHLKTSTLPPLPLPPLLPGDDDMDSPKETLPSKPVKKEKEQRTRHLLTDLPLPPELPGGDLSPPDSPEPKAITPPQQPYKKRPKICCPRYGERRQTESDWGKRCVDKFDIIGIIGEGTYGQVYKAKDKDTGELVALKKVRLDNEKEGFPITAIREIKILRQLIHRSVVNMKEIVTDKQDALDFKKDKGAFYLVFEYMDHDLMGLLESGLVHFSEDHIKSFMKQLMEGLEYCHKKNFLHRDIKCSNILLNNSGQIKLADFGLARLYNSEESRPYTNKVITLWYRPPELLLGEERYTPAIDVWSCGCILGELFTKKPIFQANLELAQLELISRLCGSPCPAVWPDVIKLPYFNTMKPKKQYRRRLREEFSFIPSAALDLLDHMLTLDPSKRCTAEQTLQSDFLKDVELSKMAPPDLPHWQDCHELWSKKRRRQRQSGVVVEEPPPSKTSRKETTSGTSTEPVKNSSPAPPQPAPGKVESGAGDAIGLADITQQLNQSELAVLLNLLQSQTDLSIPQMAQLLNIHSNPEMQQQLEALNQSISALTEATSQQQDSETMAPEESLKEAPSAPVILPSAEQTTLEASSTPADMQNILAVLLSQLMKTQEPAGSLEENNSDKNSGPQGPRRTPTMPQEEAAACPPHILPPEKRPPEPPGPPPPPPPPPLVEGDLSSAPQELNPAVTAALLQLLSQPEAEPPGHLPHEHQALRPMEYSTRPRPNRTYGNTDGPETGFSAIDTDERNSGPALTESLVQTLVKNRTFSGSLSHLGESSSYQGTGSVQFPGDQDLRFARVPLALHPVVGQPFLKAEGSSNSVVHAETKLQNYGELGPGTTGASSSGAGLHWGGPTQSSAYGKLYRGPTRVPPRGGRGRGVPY
T1 sequence (O75909 whole entry partner): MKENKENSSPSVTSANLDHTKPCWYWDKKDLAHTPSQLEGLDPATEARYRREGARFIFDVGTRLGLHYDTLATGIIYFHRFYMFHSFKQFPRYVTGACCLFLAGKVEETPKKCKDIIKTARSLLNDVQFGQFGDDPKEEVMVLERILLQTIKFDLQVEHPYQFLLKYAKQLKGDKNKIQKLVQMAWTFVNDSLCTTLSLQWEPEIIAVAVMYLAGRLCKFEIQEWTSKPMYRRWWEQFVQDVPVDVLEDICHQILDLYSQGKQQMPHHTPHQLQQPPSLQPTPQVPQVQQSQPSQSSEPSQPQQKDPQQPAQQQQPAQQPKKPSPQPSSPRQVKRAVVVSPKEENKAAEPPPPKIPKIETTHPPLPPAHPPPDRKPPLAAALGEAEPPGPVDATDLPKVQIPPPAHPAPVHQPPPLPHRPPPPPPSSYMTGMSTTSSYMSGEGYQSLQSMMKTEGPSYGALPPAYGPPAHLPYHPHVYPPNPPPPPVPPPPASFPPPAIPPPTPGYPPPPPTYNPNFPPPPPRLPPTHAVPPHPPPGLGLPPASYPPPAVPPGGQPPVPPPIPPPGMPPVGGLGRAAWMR

Row | Structure (SMILES) | IC50 ([1]; Inhibition of BRCA1 mRNA expression in MDA-MB-231 cells) [nM] | IC50 [2] [nM] | DC50 [3] [nM] | (IC50 CDK12 high ATP) to (Degradation DC50 CDK12) ratio [3] | IC50 [1, 4] [nM] | IC50 ([2]; Homo sapiens, CAL-120, 96 h) [nM]
1 | Brc1cnn2c(NCc3nc4ccccc4[nH]3)nc(N3C[C@H]4CC[C@@H]3CO4)nc12 (single isomer, unassigned; enantiomer 2) [Example 391, N-[(1H-benzimidazol-2-yl)methyl]-8-bromo-2-{[1R or S-(1R*,4R*)]-2-oxa-5-azabicyclo[2.2.2]octan-5-yl}pyrazolo[1,5-a][1,3,5]triazin-4-amine (Enantiomer 2)] | 3.77 | 8.31 | 6.98 | 960 |  | 
2 | Cc1ccnc2[nH]c(CNc3nc(N4CCOCC4)nc4c(C(C)C)cnn34)nc12 [Example 28, N-[(7-methyl-3H-imidazo[4,5-b]pyridin-2-yl)methyl]-2-(morpholin-4-yl)-8-(propan-2-yl)pyrazolo[1,5-a][1,3,5]triazin-4-amine] |  |  | 6.5 | 511 | 13.3 | 39.1
3 | Fc1ccc(-c2nnc(CNc3nc(N4CCOCC4)nc4c(Br)cnn34)[nH]2)cc1 [Example 29, 8-bromo-N-{[5-(4-fluorophenyl)-4H-1,2,4-triazol-3-yl]methyl}-2-(morpholin-4-yl)pyrazolo[1,5-a][1,3,5]triazin-4-amine] |  |  | 11.8 | 310 | 21.2 | 170
4 | CC(C)c1cnn2c(NCc3ncc(-c4ccccc4)[nH]3)nc(N3CCN(C)CC3)nc12 [Example 31, 2-(4-methylpiperazin-1-yl)-N-[(5-phenyl-1H-imidazol-2-yl)methyl]-8-(propan-2-yl)pyrazolo[1,5-a][1,3,5]triazin-4-amine] |  |  | 19.7 | 689 | 15 | 21
5 | CN(CC(C)(C)O)c1nc(NCc2nc3cc(F)c(F)cc3[nH]2)n2ncc(C3CC3)c2n1 [Example 319, 1-[(8-cyclopropyl-4-{[(5,6-difluoro-1H-benzimidazol-2-yl)methyl]amino}pyrazolo[1,5-a][1,3,5]triazin-2-yl)(methyl)amino]-2-methylpropan-2-ol] |  |  | 3.06 | 780 | 9.97 | 2.87
6 | Cc1cc2nc(CNc3nc(N(C)CC(C)(C)O)nc4c(C5CC5)cnn34)[nH]c2cc1C [Example 321, 1-[(8-cyclopropyl-4-{[(5,6-dimethyl-1H-benzimidazol-2-yl)methyl]amino}pyrazolo[1,5-a][1,3,5]triazin-2-yl)(methyl)amino]-2-methylpropan-2-ol] |  |  | 6.23 | 67 | 1.3 | 2.35
7 | CN(CC(C)(C)O)c1nc(NCc2nc3cc(C(F)(F)F)ccc3[nH]2)n2ncc(C3CC3)c2n1 [Example 323, 1-{[8-cyclopropyl-4-({[5-(trifluoromethyl)-1H-benzimidazol-2-yl]methyl}amino)pyrazolo[1,5-a][1,3,5]triazin-2-yl](methyl)amino}-2-methylpropan-2-ol] |  |  | 16.9 | 169 | 16.9 | 5.4
8 | Clc1cc2nc(CNc3nc(N4CC5CCC(C4)N5)nc4c(C5CC5)cnn34)[nH]c2cc1Cl [Example 324, 8-cyclopropyl-2-(3,8-diazabicyclo[3.2.1]octan-3-yl)-N-[(5,6-dichloro-1H-benzimidazol-2-yl)methyl]pyrazolo[1,5-a][1,3,5]triazin-4-amine] |  |  | 18 | 48 | 8.86 | 1.17
9 | Fc1cc2nc(CNc3nc(N4CC5CCC(C4)N5)nc4c(C5CC5)cnn34)[nH]c2cc1F [Example 325, 8-cyclopropyl-2-(3,8-diazabicyclo[3.2.1]octan-3-yl)-N-[(5,6-difluoro-1H-benzimidazol-2-yl)methyl]pyrazolo[1,5-a][1,5]triazin-4-amine] |  |  | 1.88 | 1890 | 3.91 | 1.48
10 | Cc1cc2nc(CNc3nc(N4CC5CCC(C4)N5)nc4c(C5CC5)cnn34)[nH]c2cc1C [Example 326, 8-cyclopropyl-2-(3,8-diazabicyclo[3.2.1]octan-3-yl)-N-[(5,6-dimethyl-1H-benzimidazol-2-yl)methyl]pyrazolo[1,5-a][1,5]triazin-4-amine] |  |  | 4.77 | 198 | 1.63 | 1.25
11 | FC(F)(F)c1ccc2[nH]c(CNc3nc(N4CC5CCC(C4)N5)nc4c(C5CC5)cnn34)nc2c1 [Example 327, 8-cyclopropyl-2-(3,8-diazabicyclo[3.2.1]octan-3-yl)-N-{[5-(trifluoromethyl)-1H-benzimidazol-2-yl]methyl}pyrazolo[1,5-a][1,3,5]triazin-4-amine] |  |  | 10 | 235 | 8.3 | 2.28
12 | Fc1cc2nc(CNc3nc(N4C[C@H]5CC[C@@H](C4)N5)nc4c(C5CC5)cnn34)[nH]c2cc1Cl [Example 328, N-[(6-chloro-5-fluoro-1H-benzimidazol-2-yl)methyl]-8-cyclopropyl-2-[(1R,5S)-3,8-diazabicyclo[3.2.1]octan-3-yl]pyrazolo[1,5-a][1,3,5]triazin-4-amine] |  |  | 3.95 | 419 | 2.78 | 0.901
13 | CN(CC(C)(C)O)c1nc(NCc2nc3cc(Cl)c(Cl)cc3[nH]2)n2ncc(Br)c2n1 [Example 331, 1-[(8-bromo-4-{[(5,6-dichloro-1H-benzimidazol-2-yl)methyl]amino}pyrazolo[1,5-a][1,3,5]triazin-2-yl)(methyl)amino]-2-methylpropan-2-ol] |  |  | 6 | 58 | 2.56 | 3.08
14 | Clc1cc2nc(CNc3nc(N4CC5CCC(C4)N5)nc4c(Br)cnn34)[nH]c2cc1Cl [Example 334, 8-bromo-2-(3,8-diazabicyclo[3.2.1]octan-3-yl)-N-[(5,6-dichloro-1H-benzimidazol-2-yl)methyl]pyrazolo[1,5-a][1,3,5]triazin-4-amine] |  |  | 33.5 | 60 | 4.02 | 1.72

Results, then the compound that gave them:

Row | IC50 ([1]; Inhibition of BRCA1 mRNA expression in MDA-MB-231 cells) [nM] | IC50 [2] [nM] | DC50 [3] [nM] | (IC50 CDK12 high ATP) to (Degradation DC50 CDK12) ratio [3] | IC50 [1, 4] [nM] | IC50 ([2]; Homo sapiens, CAL-120, 96 h) [nM] | Structure (SMILES)
15 |  |  | 4.28 | 130 | 3.59 | 4.24 | Cc1cc2nc(CNc3nc(N4CCOCC4)nc4c(C5CC5)cnn34)[nH]c2cc1C [Example 320, 8-cyclopropyl-N-[(5,6-dimethyl-1H-benzimidazol-2-yl)methyl]-2-(morpholin-4-yl)pyrazolo[1,5-a][1,3,5]triazin-4-amine]
16 |  |  | 4.57 | 266 | 3.56 | 7.97 | FC(F)(F)c1ccc2[nH]c(CNc3nc(N4CCOCC4)nc4c(C5CC5)cnn34)nc2c1 [Example 322, 8-cyclopropyl-2-(morpholin-4-yl)-N-{[5-(trifluoromethyl)-1H-benzimidazol-2-yl]methyl}pyrazolo[1,5-a][1,3,5]triazin-4-amine]
17 |  |  | 7.38 | 73 | 9.23 | 6.11 | Clc1cc2nc(CNc3nc(N4CCOCC4)nc4c(Br)cnn34)[nH]c2cc1Cl [Example 329, 8-bromo-N-[(5,6-dichloro-1H-benzimidazol-2-yl)methyl]-2-(morpholin-4-yl)pyrazolo[1,5-a][1,3,5]triazin-4-amine]
18 |  |  | 2.89 | 1601 | 5.68 | 2.44 | CN1CCN(c2nc(NCc3nc4cc(Cl)c(Cl)cc4[nH]3)n3ncc(Br)c3n2)CC1 [Example 330, 8-bromo-N-[(5,6-dichloro-1H-benzimidazol-2-yl)methyl]-2-(4-methylpiperazin-1-yl)pyrazolo[1,5-a][1,3,5]triazin-4-amine]
19 |  |  | 10.7 | 18 | 3.78 | 10.9 | FC(F)(F)c1cnn2c(NCc3nc4cc(Cl)c(Cl)cc4[nH]3)nc(N3CCOCC3)nc12 [Example 332, N-[(5,6-dichloro-1H-benzimidazol-2-yl)methyl]-2-(morpholin-4-yl)-8-(trifluoromethyl)pyrazolo[1,5-a][1,3,5]triazin-4-amine]
20 |  |  | 2.31 | 61 | 1.8 | 3.1 | Fc1cc2nc(CNc3nc(N4CCOCC4)nc4c(C(F)(F)F)cnn34)[nH]c2cc1F [Example 333, N-[(5,6-difluoro-1H-benzimidazol-2-yl)methyl]-2-(morpholin-4-yl)-8-(trifluoromethyl)pyrazolo[1,5-a][1,3,5]triazin-4-amine]
